Data as given in the NIST ThermoML archive (doi:10.1021/je900050z).

Conditions: Liquid

CCC(C)(C)O [2-methylbutan-2-ol]
Conditions | vapor or sublimation pressure [kPa]
303.29 K | 2.81
303.47 K | 2.85
304.67 K | 3.16
305.75 K | 3.4
305.9 K | 3.43
308.35 K | 4.08
309.12 K | 4.31
309.86 K | 4.55
310.61 K | 4.8
311.64 K | 5.15
312.47 K | 5.43
313.38 K | 5.77
314.17 K | 6.08
315.44 K | 6.59
317.09 K | 7.31
318.64 K | 7.99
319.37 K | 8.36
319.86 K | 8.61
320.32 K | 8.84
321.32 K | 9.36
322.44 K | 9.99
323.15 K | 10.41
323.27 K | 10.49
324.11 K | 11.03
324.91 K | 11.51
325.71 K | 12.03
326.45 K | 12.55
327.18 K | 13.05
327.62 K | 13.36
328.41 K | 13.97
329.33 K | 14.65
330.15 K | 15.31
330.98 K | 15.97
331.8 K | 16.67
332.46 K | 17.29
333.15 K | 17.87
333.26 K | 17.99
333.99 K | 18.65
334.69 K | 19.32
335.45 K | 20.03
336.05 K | 20.67
336.68 K | 21.31
337.31 K | 21.96
337.97 K | 22.63
338.69 K | 23.47
339.15 K | 23.97
339.68 K | 24.67
340.31 K | 25.35
340.83 K | 26
341.39 K | 26.67
341.9 K | 27.33
342.4 K | 27.97
342.92 K | 28.67
343.15 K | 28.95
343.42 K | 29.31
343.94 K | 30.01
344.47 K | 30.67
344.91 K | 31.35
345.39 K | 32.07
345.78 K | 32.67
346.35 K | 33.48
347.18 K | 34.67
347.57 K | 35.32
348.07 K | 36.07
348.49 K | 36.71
348.88 K | 37.36
349.27 K | 38.01
349.64 K | 38.64
350.08 K | 39.32
350.49 K | 39.96
350.83 K | 40.64
351.2 K | 41.31
351.67 K | 42.08
351.95 K | 42.65
352.3 K | 43.35
352.73 K | 44
353.02 K | 44.65
353.15 K | 44.87
353.44 K | 45.35
353.73 K | 45.97
354.1 K | 46.63
354.41 K | 47.28
354.72 K | 47.95
355.11 K | 48.65
355.43 K | 49.31
355.74 K | 49.95
356.09 K | 50.75
356.45 K | 51.36
356.69 K | 52
356.99 K | 52.61
357.35 K | 53.32
357.67 K | 54.03
357.96 K | 54.67
358.25 K | 55.35
358.47 K | 55.95
358.85 K | 56.63
359.15 K | 57.33
359.48 K | 58
359.68 K | 58.59
360.01 K | 59.27
360.21 K | 59.95
360.53 K | 60.59
360.83 K | 61.27
361.11 K | 61.99
361.4 K | 62.61
361.72 K | 63.35
362.01 K | 64.04
362.24 K | 64.67
362.54 K | 65.35
362.84 K | 66
363.07 K | 66.71
363.56 K | 67.92
364.15 K | 69.21
364.62 K | 70.64
365.21 K | 71.99
365.73 K | 73.37
366.16 K | 74.75
366.67 K | 76.05
367.11 K | 77.28
367.53 K | 78.63
368.02 K | 79.97
368.44 K | 81.28
368.83 K | 82.53
369.31 K | 83.93
369.73 K | 85.28
370.15 K | 86.63
370.56 K | 87.97
370.99 K | 89.39
371.39 K | 90.76
371.77 K | 91.99
372.16 K | 93.31
372.56 K | 94.67
372.95 K | 95.99
373.34 K | 97.39
373.73 K | 98.71
